Drawing on patent US11840521B2, “Modulators of Mas-related G-protein receptor X4 and related products and methods” (Escient Pharmaceuticals, Inc., priority 2019, dated 2023), this text covers IC50 for 71 molecules.

SMILES strings stand for the structures. A value given as a limit tells only on which side of the number the result lay.

For the first experiment, the target named is MRGPRX4 (Homo sapiens, UniProt Q96LA9). The experiment is described as follows: MRGPR X4 antagonist activity, IP-One Gq HTRF assay in stably transfected HEK cells (versus agonist bilirubin, deoxycholic acid, conjugated bilirubin, urobilin, obeticholic acid or BAR502). The conditions noted are these: read-out: IC50 (10 μM BAR502) nM; MRGPRX4 antagonists versus 10 μM BAR502 agonist. Set-up: expressed in transfected cells; host or cells: HEK cells, stably transfected. It counts as cell-based. The gist of the method: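 Stably transfected HEK cells expressing human MRGPR X4, seeded overnight, given compounds as 10-point 1:3 curves from 10 uM final top, incubated 1 h at 37° C then 30 min at room temperature. IP-1 measured by IP-One Gq HTRF. IC50 derived from the HTRF ratio.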
MRGPRX4, sequence (Q96LA9 whole entry): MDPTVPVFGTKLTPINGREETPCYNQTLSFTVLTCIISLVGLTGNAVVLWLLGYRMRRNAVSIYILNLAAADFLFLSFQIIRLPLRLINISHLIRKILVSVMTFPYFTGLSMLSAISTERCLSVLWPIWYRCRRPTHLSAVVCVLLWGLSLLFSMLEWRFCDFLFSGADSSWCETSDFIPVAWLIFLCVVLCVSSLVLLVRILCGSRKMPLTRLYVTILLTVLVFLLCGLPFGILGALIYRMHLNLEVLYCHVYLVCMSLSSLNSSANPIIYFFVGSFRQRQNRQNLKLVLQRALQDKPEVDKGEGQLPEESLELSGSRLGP
A general note: In TR-FRET formats the signal depends on donor and acceptor labels being close together.
Take `Cc1cc(C(F)(F)F)ccc1OCc1cc(C#N)cc(C(=O)O)c1` [Compound 32-2]: the IC50 was found to be 17 nM.

The experiment is the same for the next values; noted with them: versus 10 μM Bilirubin agonist; HEK cells expressing human MRGPR X4; read-out: MRGPR4 Antagonist Activity.
As to `O=C(O)c1cccc(COc2ccccc2Cl)c1F` [Compound 4-29], the IC50 was greater than 2500 nM.

As to `O=C(O)c1cc(COc2ccc(C(F)(F)F)c(Cl)c2)cc(C(F)(F)F)c1` [Compound 4-16], the IC50 is 100 to 500 nM.

As to `NCCNC(=O)c1cccc(COc2ccc(C(F)(F)F)cc2Cl)c1` [Compound 53-2], the IC50 fell in the range of 1000 to 2500 nM.

Regarding `O=C(O)c1cc(Br)cc(COc2ccc(C(F)(F)F)cc2Cl)n1` [Compound 9-1, 4-bromo-6-((2-chloro-4-(trifluoromethyl)phenoxy)methyl)picolinic acid], the IC50 was less than 100 nM.

Consider `N#Cc1c(Cl)cccc1OCc1cccc(C(=O)O)c1` [Compound 1-76], for which the IC50 lay in the range of 100 to 500 nM.

As to `O=C(O)c1cccc(COc2c(Cl)cccc2Cl)c1` [Compound 1-25], the IC50 was greater than 2500 nM.

On to `O=C(O)c1ccc(COc2ccc(Cl)cc2Cl)cc1` [Compound 1-113], for which the IC50 is 500 to 1000 nM.

Turning to `Cc1ccc(OCc2cccc(C(=O)O)c2)c(Cl)c1` [Compound 3-2, 3-((2-chloro-4-methylphenoxy)methyl)benzoic acid], the IC50 lay in the range of 500 to 1000 nM.

As for `FC(F)(F)Oc1ccc(OCc2cccc(-c3nnn[nH]3)c2)cc1Cl` [Compound 17-10], the IC50 is less than 100 nM.

As to `Cc1cc(COc2ccc3ccccc3c2)cc(C(=O)O)c1` [Compound 4-12], the IC50 was less than 100 nM.

In the case of `O=C(O)c1cc(Cl)cc(COc2ccc(Cl)cc2Cl)c1` [Compound 2-1, 3-chloro-5-((2,4-dichlorophenoxy)methyl)benzoic acid], the IC50 was less than 100 nM.

On to `N#Cc1cc(COc2ccc(OC(F)(F)F)cc2Cl)cc(C(=O)O)c1` [Compound 32-4], for which the IC50 was less than 100 nM.

Consider `O=C(O)c1cccc(COc2ccc(OC(F)F)cc2)c1` [Compound 1-135], for which the IC50 was in the range of 100 to 500 nM.

As to `FC(F)(F)c1ccc(OCc2cccc(-c3nc[nH]n3)c2)c(Cl)c1` [Compound 45-2, 3-(3-((2-chloro-4-(trifluoromethyl)phenoxy)methyl)phenyl)-1H-1,2,4-triazole], the IC50 lay in the range of 500 to 1000 nM.

On to `N#Cc1cc(COc2ccc(C(F)(F)F)cc2Cl)nc(C(=O)O)c1` [Compound 43-1, 6-((2-chloro-4-(trifluoromethyl)phenoxy)methyl)-4-cyano-pyridine-2-carboxylic acid], for which the IC50 was less than 100 nM.

As for `N#Cc1c(COc2ccc(Cl)cc2Cl)cccc1C(=O)O` [Compound 4-6], the IC50 was 100 to 500 nM.

`O=C(O)c1cccc(COc2cccc3c2CCCC3=O)c1` [Compound 1-87]: the IC50 lay within 1000 to 2500 nM.

Turning to `CCc1cc(COc2ccc3ccccc3c2)nc(C(=O)O)c1` [Compound 42-1, 4-ethyl-6-((naphthalen-2-yloxy)methyl)picolinic acid], the IC50 was less than 100 nM.

For `FC(F)(F)Oc1ccc(OCc2cccc(-c3nnn[nH]3)c2)c(Cl)c1` [Compound 17-8], the IC50 was less than 100 nM.

On to `CCOc1ccccc1OCc1cccc(C(=O)O)c1` [Compound 1-84], for which the IC50 was 1000 to 2500 nM.

Turning to `Cc1cc(COc2ccc(C(F)(F)F)cc2Cl)nc(C(=O)O)c1` [Compound 41-2], the IC50 was less than 100 nM.

Take `O=C(O)c1cccc(COc2ccc(F)cc2Cl)c1` [Compound 1-24]: the IC50 is greater than 2500 nM.

Consider `O=C(O)c1cccc(COc2ccc(OC(F)(F)F)cc2Cl)c1F` [Compound 4-13], for which the IC50 is less than 100 nM.

`COc1cccc(OCc2cccc(C(=O)O)c2)c1` [Compound 1-39]: the IC50 lay in the range of 100 to 500 nM.

Regarding `O=C(N[C@@H](Cc1ccc(O)cc1)C(=O)O)c1cccc(COc2ccc(C(F)(F)F)cc2Cl)c1` [Compound 54-7], the IC50 is 100 to 500 nM.

For the molecule `Fc1ccc(OCc2cccc(-c3nnn[nH]3)c2)c(Cl)c1` [Compound 17-7], the IC50 is less than 100 nM.

On to `O=C(O)c1cccc(COc2ccc(Cl)cc2F)c1` [Compound 1-23], for which the IC50 was 500 to 1000 nM.

Consider `O=C(O)c1cccc(COCc2ccc(Cl)cc2Cl)c1` [Compound 3-8], for which the IC50 fell in the range of 1000 to 2500 nM.

With `Cc1ccc(C(C)(C)C)c(OCc2cccc(C(=O)O)c2)c1` [Compound 1-88], the IC50 fell in the range of 1000 to 2500 nM.

For the molecule `Cc1cc(C(F)(F)F)ccc1OCc1cccc(-c2nnn[nH]2)c1` [Compound 17-11], the IC50 was less than 100 nM.

On to `O=C(O)c1cccc(CNc2ccc3ccccc3c2)c1` [Compound 12-2], for which the IC50 was 500 to 1000 nM.

As to `O=C(O)c1nc(COc2ccc(C(F)(F)F)c(Cl)c2)ccc1F` [Compound 4-19], the IC50 is less than 100 nM.

Take `NC(=O)C[C@H](NC(=O)c1cccc(COc2ccc(C(F)(F)F)cc2Cl)c1)C(=O)O` [Compound 55-1, (3-((2-chloro-4-(trifluoromethyl)phenoxy)methyl)benzoyl)-L-asparagine]: the IC50 was in the range of 100 to 500 nM.

Consider `O=C(O)c1cccc(CSc2ccc(Cl)cc2Cl)c1` [Compound 15-1, 3-(((2,4-dichlorophenyl)thio)methyl)benzoic acid], for which the IC50 lay in the range of 100 to 500 nM.

In the case of `O=C(O)c1cccc(COc2cccc(-c3ccc(F)cc3)c2)c1` [Compound 1-69], the IC50 is 500 to 1000 nM.

As to `CCOC(=O)c1cccc(COc2ccc(C(F)(F)F)cc2Cl)c1F` [Compound 56-1, ethyl 3-((2-chloro-4-(trifluoromethyl)phenoxy)methyl)-2-fluorobenzoate], the IC50 was 100 to 500 nM.

Regarding `CCc1cc(COc2ccc(Cl)c(Cl)c2Cl)nc(C(=O)O)c1` [Compound 42-2], the IC50 is less than 100 nM.

Take `O=C(O)c1cccc(COc2ccc3c(c2)CCC3)c1` [Compound 1-42]: the IC50 lay within 1000 to 2500 nM.

With `O=C(O)Cc1cccc(COc2ccc(Cl)cc2Cl)c1` [Compound 64-1, 2-(3-((2,4-dichlorophenoxy)methyl)phenyl)acetic acid], the IC50 is greater than 2500 nM.

On to `O=C(O)c1cccc(COc2ccc(Cl)cc2Cl)c1Cl` [Compound 4-9], for which the IC50 is less than 100 nM.

Regarding `COC(=O)c1cccc(COc2ccc(C#N)cc2Cl)c1` [Compound 1-3], the IC50 was in the range of 1000 to 2500 nM.

With `O=C(O)c1cc(Cl)cc(COc2ccc(C(F)(F)F)cc2Cl)c1` [Compound 1-82], the IC50 is less than 100 nM.

With `O=C(O)c1cccc(COc2ccc(F)cc2C(F)(F)F)c1` [Compound 1-91], the IC50 fell in the range of 500 to 1000 nM.

`COc1cc(C(=O)O)ccc1OCc1ccc(Cl)cc1` [Compound 1-20]: the IC50 was in the range of 1000 to 2500 nM.

As for `O=C(O)c1cccc(COc2ccc(C3CC3)cc2)c1` [Compound 1-46], the IC50 is 1000 to 2500 nM.

As to `O=C(O)c1cccc(COc2ccc3ccccc3c2)c1` [Compound 1-17], the IC50 was 100 to 500 nM.

For the molecule `O=C(O)c1c(F)ccc(COc2ccc(C(F)(F)F)cc2Cl)c1F` [Compound 1-136], the IC50 was less than 100 nM.

As to `CC(C)c1ccc(OCc2cccc(C(=O)O)c2)cc1` [Compound 1-86], the IC50 fell in the range of 500 to 1000 nM.

As for `O=C(O)c1cccc(COc2ccc(Cl)c(Cl)c2F)c1` [Compound 1-149], the IC50 was less than 100 nM.

As for `Cc1ccc(OCc2cccc(C(=O)O)c2)cc1F` [Compound 1-89], the IC50 was 100 to 500 nM.

`NCc1cccc(COc2ccc(Cl)cc2Cl)c1` [Compound 7-1, (3-((2,4-dichlorophenoxy)methyl)phenyl)methanamine]: the IC50 is 100 to 500 nM.

On to `O=C(O)c1cccc(COc2ccc3ccccc3c2Cl)c1F` [Compound 4-21], for which the IC50 was less than 100 nM.

Take `Cc1c(OCc2cccc(C(=O)O)c2)ccc2c1OCC2=O` [Compound 1-154]: the IC50 was 100 to 500 nM.

`Fc1cc(COc2ccc(C(F)(F)F)cc2Cl)cc(-c2nnn[nH]2)c1` [Compound 17-14]: the IC50 was less than 100 nM.

For the molecule `O=C(O)c1cccc(COc2cccc(Cl)c2Cl)c1` [Compound 3-4], the IC50 lay within 100 to 500 nM.

Turning to `COc1ccc(C(=O)O)cc1COc1ccc(Cl)cc1Cl` [Compound 1-27], the IC50 is greater than 2500 nM.

For `O=C(O)c1ccc(COc2ccc(Cl)cc2Cl)s1` [Compound 1-43], the IC50 fell in the range of 500 to 1000 nM.

On to `COC(=O)c1cccc(COc2ccc(C(F)(F)F)cc2Cl)n1` [Compound 1-11], for which the IC50 is less than 100 nM.

On to `O=C(O)c1cccc(CNc2ccc(Cl)cc2Cl)c1` [Compound 12-1, 3-(((2,4-dichlorophenyl)amino)methyl)benzoic acid], for which the IC50 lay within 100 to 500 nM.

On to `O=C(c1ccc(COc2ccc(C(F)(F)F)cc2Cl)cc1)N1CCC2(COC2)C1` [Compound 52-4], for which the IC50 was in the range of 1000 to 2500 nM.

Consider `CN(C)c1cc(COc2ccc(C(F)(F)F)cc2Cl)cc(C(=O)O)c1` [Compound 38-1, 3-((2-chloro-4-(trifluoromethyl)phenoxy)methyl)-5-(dimethylamino)benzoic acid], for which the IC50 was in the range of 100 to 500 nM.

Take `O=C(O)c1cccc(COc2ccc(-n3cccc3)cc2Cl)c1F` [Compound 4-25]: the IC50 fell in the range of 100 to 500 nM.

`Cc1ccc(OCc2cccc(C(=O)O)c2)c(F)c1` [Compound 1-77]: the IC50 was in the range of 1000 to 2500 nM.

For `COC(=O)c1cccc(COc2ccc(Cl)cc2C(F)(F)F)c1` [Compound 1-1], the IC50 is 1000 to 2500 nM.

Take `O=C1CC(c2cccc(COc3ccc(C(F)(F)F)cc3Cl)c2)N1` (stereo not drawn) [Compound 59-1, 4-(3-((2-chloro-4-(trifluoromethyl)phenoxy)methyl)phenyl)azetidin-2-one]: the IC50 lay within 500 to 1000 nM.

As to `O=C(O)c1cccc(COc2ccccc2Cl)c1` [Compound 1-22], the IC50 is greater than 2500 nM.

Turning to `COC(=O)c1cc(COc2ccc(Cl)cc2Cl)on1` [Compound 1-15], the IC50 lay in the range of 1000 to 2500 nM.

For the molecule `O=C(NCS(=O)(=O)O)c1ccc(COc2ccc(C(F)(F)F)cc2Cl)cc1` [Compound 52-3], the IC50 fell in the range of 100 to 500 nM.

With `OCc1cccc(COc2ccc(Cl)cc2Cl)c1` [Compound 14-1, (3-((2,4-dichlorophenoxy)methyl)phenyl)methanol], the IC50 was in the range of 1000 to 2500 nM.

Regarding `Cc1cc(C(F)(F)F)ccc1OCc1cc(C#N)cc(C(=O)O)c1` [Compound 32-2], the IC50 was less than 100 nM.

Regarding `COC(=O)c1ccc(COc2ccc(Cl)cc2Cl)s1` [Compound 1-14], the IC50 was in the range of 1000 to 2500 nM.
